Measurements as given in patent US20240091366A1, “NOVEL ACID-SENSITIVE APTAMER TRIPTOLIDE CONJUGATE AND APPLICATIONS” (priority 2022, published 2024).

Experiments:
[1] = MTT assay, cytotoxicity on normal cells; assay type: cell-based, human; details: 48 h
Experimental: The same materials as those in Part II above are not repeated here, in addition to the following: human normal hepatocytes LO2, human embryonic kidney cells HEK293 were purchased from the Shanghai Cell Bank of the Chinese Academy of Sciences and preserved in our laboratory.
Take the […] LO2 and HEK293 cell lines from the liquid nitrogen tank, place them in a 37° C. water bath, wait for the frozen cells to melt into cell suspension, centrifuge the cells at 1000 r/min for 3 min, discard the supernatant, add 1 ml of fresh complete medium containing 10% fetal bovine serum and 1% double antibody to mix the cells, then add 5 ml of medium, gently and repeatedly blowing the cells with a pipette gun to make them mix well. Then add 5 ml of medium, blow the cells gently and repeatedly with a pipette gun to mix them well, and finally transfer the cell suspension to a […] and label the cell name, cell number, date of resuscitation and the operator's name, and place it in a cell culture incubator for cultivation. (HEK293 cell line was cultured with DMEM medium, LO2 cell line was cultured with RPMI1640 medium)
Take LO2 and HEK293 cells with good growth status, remove the medium, add 1 ml of sterile PBS to wash, add 1.5 ml of trypsin to digest the cells, about 2 min later the cells become round and fall off, add 1.5 ml of medium to terminate the digestion, transfer it to centrifugal tube, centrifuge at 1000 r/min for 3 min, discard the supernatant, add 1 ml of fresh medium to resuspend, then add fresh medium for 1:3 distribution to other culture dishes, and label the date of transmission and the number of generations. Place in the cell culture incubator for cultivation.
Take LO2 and HEK293 cells with good growth status, by the same operation as the cell passaging experiment, after cell resuspension, cell counting with hemocyte counting plate, with 3000 cells/well, plant in 96-well plate, after 24 h of cell culture, remove the original medium, add medium containing different concentrations of drugs and continue to cultivate for 48 hours. After 24 h of cell culture, the original medium was removed and the medium containing different concentrations of drugs was added to continue the culture for 48 hours. […] The above steps were repeated three times.

[2] = background art; cited from earlier work

CC(C)[C@]12O[C@H]1[C@@H]1O[C@]13[C@]1(O[C@H]1C[C@H]1C4=C(CC[C@@]13C)C(=O)OC4)[C@@H]2O [TP, Triptolide]
IC50 at 48 h ([1]; human, LO2 normal hepatocyte cells, normal hepatocytes LO2, MTT): 9.01 ± 0.25 nM | IC50 at 48 h ([1]; normal human embryonic kidney cells HEK293, MTT): 5.98 ± 0.21 nM | solubility in water [2]: insoluble in water
